{
  "source": "patent US20120040914A1",
  "about": "“ENHANCING EFFECTIVENESS OF GLIAL CANCER THERAPIES” (priority 2010, published 2012)",
  "key": {"[1]": {"tested_on": "putative mAR in A172 human glioblastoma cells", "conditions": "unlabeled DHT as displacer, relative to T-BSA incubated A172 cells", "excerpt": "The population histograms depict the frequency distribution of the cells labeled with a fluorescently tagged, BSA-conjugated testosterone (Testosterone-BSA-FITC, abbreviated as T-BSA), or T-BSA in the presence of unlabeled DHT, serving as the “displacer”. […] Also note that the x-axis is on a log scale."}, "[2]": {"tested_on": "A172 human glioblastoma cell line", "assay": "cells", "conditions": "A 172, read-out: reduction in cell viability (calcein fluorescence)"}, "hippocampal HT-22 cells": {"tested_on": "hippocampal HT-22 cells", "assay": "glutamate-induced cytotoxicity, Calcein-am assay", "type": "cell-based"}, "[3]": {"tested_on": "Temozolomide-resistant T98g human glioblastoma cells", "assay": "sensitivity to ionizing radiation, Calcein-am assay", "type": "cell-based"}, "C6 glioma cells": {"tested_on": "C6 glioma cells", "assay": "salinomycin sensitivity, cell viability by Calcein-am assay", "type": "cell-based", "conditions": "10 microM TBSA, 48 hrs, leftward shift of the concentration response", "method": "C6 glioma cells were treated with increasing concentrations of the cancer therapeutic, salinamycin, a drug with a high profile of selectivity for cancer stem cells. […] The data are presented as a percentage of cell viability seen in non-TBSA/salinamycin treated cells. The group labeled as Triton-X serves as our cell death-inducing control."}, "[4]": {"tested_on": "A172 human glioblastoma cells", "assay": "sensitivity to ionizing radiation, Calcein-am assay", "type": "cell-based", "conditions": "total dose of 5 Gy at 6.3 Gy/min, 6 hrs after radiation", "method": "Cell viability was measured using the Calcein-am assay following 6 hrs after the administration of the dose of ionizing radiation. The data are presented as a percentage of cell viability seen in the non-radiated (black bars) or radiated (checkered bars) in the absence of T-BSA."}},
  "data": [
    {"compound": "C[C@]12CCC(=O)C[C@@H]1CC[C@@H]1[C@@H]2CC[C@]2(C)[C@@H](O)CC[C@@H]12", "note": "[DHT, Dihydrotestosterone]", "values": [
      {"measurement": "displacement of Testosterone-BSA-FITC (T-BSA) binding, fluorescence intensity", "setting": "[1]", "result": "clear leftward shift of fluorescence intensity"}
    ]},
    {"compound": "Cn1nnc2c(C(N)=O)ncn2c1=O", "note": "[TMZ, Temozolomide]", "values": [
      {"measurement": "cytotoxicity at 5000 µM", "setting": "[2]", "result": "~35", "unit": "%"}
    ]},
    {"compound": "TBSA: BSA-conjugated testosterone, membrane impermeable androgen, ligand/activator of the membrane androgen receptor (mAR)", "values": [
      {"measurement": "cell viability, by itself", "setting": "hippocampal HT-22 cells; TBSA alone, Calcein-am assay", "result": "had no effect on cell viability"},
      {"measurement": "effect on glutamate-induced cell death", "setting": "hippocampal HT-22 cells; TBSA plus glutamate", "result": "protected against glutamate-induced cytotoxicity"},
      {"measurement": "sensitization to ionizing radiation (cell viability)", "setting": "[3]; 5 Gy, 100 nM-40 microM TBSA, 6 hr or 24 hr post radiation", "result": "ineffective at sensitizing the cells to ionizing radiation"},
      {"measurement": "sensitization to ionizing radiation (cell viability)", "setting": "[3]; 10 Gy", "result": "effective at sensitizing these cells to ionizing radiation"},
      {"measurement": "lowest concentration at which the sensitizing effect was noted", "setting": "[3]; 20 Gy", "result": 1, "unit": "µM"},
      {"measurement": "effect on sensitivity to salinamycin (concentration response of cell viability)", "setting": "C6 glioma cells", "result": "increased the sensitivity of the cells to salinamycin"},
      {"measurement": "sensitization to ionizing radiation (cell viability)", "setting": "[4]", "result": "enhanced the sensitivity of the A172 glioblastoma cells to the cytotoxic effects of ionizing radiation"}
    ]}
  ]
}
